Laboratory results reported in BindingDB's records for doi:10.7270/Q2TQ5ZZB (Burnham Center For Chemical Genomics, 2010).
Where a name gives a salt, the structure may show the parent alone.

molecular target: G-protein coupled receptor 35 (Homo sapiens, UniProt Q9HC97); assay: GPR35 antagonists blocking zaprinast-driven arrestin recruitment, primary screen, imaging, U2OS, beta-arrestin-GFP, zaprinast agonist (AID 2058)
Sequence (Q9HC97 whole entry): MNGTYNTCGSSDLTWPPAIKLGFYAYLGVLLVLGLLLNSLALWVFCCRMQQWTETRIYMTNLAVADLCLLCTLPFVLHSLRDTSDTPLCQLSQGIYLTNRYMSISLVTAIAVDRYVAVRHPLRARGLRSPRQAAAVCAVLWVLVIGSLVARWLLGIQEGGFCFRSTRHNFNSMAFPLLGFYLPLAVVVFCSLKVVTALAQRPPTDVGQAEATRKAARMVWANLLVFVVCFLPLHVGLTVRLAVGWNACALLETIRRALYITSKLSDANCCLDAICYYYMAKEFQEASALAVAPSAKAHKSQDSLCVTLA

First: Oc1ccc(CN=Nc2nc(-c3ccccc3F)nc3ccccc23)c(O)c1 [MLS000778210]
Second: CC1(C)Cc2c(ccc3ccccc23)C(CC(=O)N2CCCCC2)=N1 [(2Z)-2-(2,2-dimethyl-1,3-dihydrobenzo[f]isoquinolin-4-ylidene)-1-(1-piperidinyl)ethanone;hydrochloride]
The IC50 of the first is 3.6-fold lower: 3.08 µM for the first, 11 µM for the second. The first is the more potent here.

Compared with `CN1CCC2=C(C#N)C(=N)C(C#N)(C#N)C(c3ccsc3)C2C1` (stereo not given) [6-azanyl-2-methyl-8-thiophen-3-yl-1,3,8,8a-tetrahydroisoquinoline-5,7,7-tricarbonitrile], `CN1CCC2=C(C#N)C(=N)C(C#N)(C#N)C(c3cccc(Cl)c3Cl)C2C1` (stereo not given) [6-azanyl-8-[2,3-bis(chloranyl)phenyl]-2-methyl-1,3,8,8a-tetrahydroisoquinoline-5,7,7-tricarbonitrile] is 12-fold higher in IC50: 0.991 µM for the first, 12 µM for the second.

In the case of `COc1cccc(C2C3CN(C)CCC3=C(C#N)C(=N)C2(C#N)C#N)c1OC` (stereo not given) [6-Amino-8-(2,3-dimethoxy-phenyl)-2-methyl-2,3,8,8a-tetrahydro-1H-isoquinoline-5,7,7-tricarbonitrile], the IC50 is reported as 2.74 µM.
